Drawing on PubChem BioAssay AID1902 (Broad Institute, 2009), this text covers EC50 for 92 molecules.

The source made the active and inactive calls.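 Rule for the calls: active = EC50 no more than a set limit of log units above the highest dose; inactive = the rest.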

The target in this experiment is S. pyogenes SKKanGAS, kanamycin survival, BacTiterGlo, 6 h. Nature of the experiment: SKKanGAS survival reduction under kanamycin, dose response, streptokinase promoter inhibitor project, SKKanGAS strain, luminescence, dose confirmation (AID 1902).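 Note: lower survival reflects blocked streptokinase promoter driving kanamycin resistance gene.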

Consider `O=C(/C=C/c1ccccc1)c1cc(Br)ccc(=O)c1O`, for which the EC50 was 1.33 µM. In the case of `COc1ccccc1C(=O)Nc1nnc(SCC(=O)NCC2CCCO2)s1` (configuration not stated), the EC50 was > 15 µM (inactive).

Consider `COc1ccc(NC2=NCC(Cc3ccc(Br)cc3)S2)cc1` (configuration not stated), for which the concentration giving a half-maximal response (EC50) was 11.9 µM. As for `O=C1C(Cl)=C(Nc2ccc3cn[nH]c3c2)C(=O)c2ccccc21`, the EC50 is 2.21 µM. Turning to `O=C1/C(=C\c2cccc(O)c2O)SC(=S)N1Cc1ccccc1`, the EC50 was 2.2 µM. `CCc1nn(CCCC(=O)NCc2ccccc2Br)c(=O)c2cc3occc3n12`: the 50% effective concentration (EC50) is 2.55 µM. For `O=C1c2[nH]nc(-c3ccccc3O)c2C(c2cccc(Cl)c2)N1Cc1ccco1` (configuration not stated), the EC50 is 7.4 µM. Take `CN=C(Nc1cc(Cl)ccc1Cl)SC1CC(=O)N(c2ccc(C(=O)OC)cc2)C1=O` (configuration not stated): the EC50 was 7.4 µM. The figure for `CC[C@H]1OC(=O)[C@H](C)[C@@H](O[C@H]2C[C@@](C)(OC)[C@@H](O)[C@H](C)O2)[C@H](C)[C@@H](O[C@@H]2O[C@H](C)C[C@H](N(C)C)[C@H]2O)[C@](C)(O)C[C@@H](C)C(=NOCOCCOC)[C@H](C)[C@@H](O)[C@]1(C)O` is < 0.06 µM; for `Cc1cc(N/N=C/c2c(O)ccc3ccccc23)nc(-c2ccccc2O)n1` it is 0.257 µM; for `O=c1c2ccccc2sn1-c1cc(S(=O)(=O)N2CCOCC2)ccc1N1CCOCC1` it is 13.3 µM. For `O=[N+]([O-])c1ccc(O)c(/C=N/Nc2ccc(Cl)nn2)c1` the value was 0.252 µM.

For `S=C1NC[C@H](CC2CCCCC2)N1CC1CCCCC1`, the EC50 is 7.69 µM. For `CCOC(=O)c1ccc(Nc2nc(C)nc3c2nnn3Cc2ccccc2)cc1` the value was 6.69 µM; for `O=C(N/N=C/c1c(O)n(Cc2ccco2)c(=O)[nH]c1=O)c1ccccc1O`, 2.81 µM. In the case of `CCCCCc1ccc(OCCOCCn2c[n+](C)c3ccccc32)c(CCCCC)c1`, the 50% effective concentration (EC50) is 5.79 µM. For `c1ccc(CN2CCN(c3nc4ccccc4c4ccccc34)CC2)cc1` the value was 5.26 µM. The figure for `O=C(O)CSc1nnc(Cn2c(=O)sc3ccccc32)n1-c1cccc(Cl)c1` is > 15 µM (inactive). For `Cc1nn(-c2ccccc2)c(Cl)c1/C=N/Nc1ccc(S(=O)(=O)Nc2ccccc2C(=O)O)cc1[N+](=O)[O-]` the value was 1.29 µM. On to `CC1=Nc2ccccc2/C1=C\c1nc(-c2ccc(F)cc2)oc1O`, for which the EC50 is 7.57 µM. Take `COc1cc(C(=O)N/N=C/c2ccc(OC(=O)c3ccccc3Cl)c(OC)c2)ccc1O`: the EC50 was 5.64 µM.

`COc1c(N2CCN(C(=S)Nc3ccc(F)cc3)C(C)C2)c(F)cc2c(=O)c(C(=O)O)cn(C3CC3)c12` (configuration not stated): the EC50 was 3.37 µM. As for `C/C(=N\NC(=O)c1ccccc1O)C1C(=O)c2ccccc2C1=O`, the EC50 is 4.69 µM.

Consider `CO[C@@]1(NC(=O)Cc2cccs2)C(=O)N2C(C(=O)O)=C(COC(N)=O)CS[C@@H]21`, for which the EC50 is 3.33 µM. On to `O=C(/C(=N\Nc1ccc([N+](=O)[O-])cc1)Sc1nnnn1-c1ccccc1)c1ccccc1`, for which the EC50 is 5.46 µM. With `CCC(C)c1ccccc1NS(=O)(=O)c1cnn(CC)c1` (configuration not stated), the EC50 is > 15 µM (inactive). The figure for `Cc1cccc(NC(=O)C2SC(=Nc3c(C)cccc3C)C(C(=O)N3CCOCC3)=C2N)c1` (configuration not stated) is 2.44 µM. `CC1=C/C(=N\NC(=S)NCCc2ccccc2)CC(C)(C)C1`: the concentration giving a half-maximal response (EC50) is 2.58 µM. `O=[N+]([O-])c1cc(Cl)cc(/C=N\Nc2ccccn2)c1O`: the half-maximal effective concentration (EC50) was 2.89 µM. With `CCc1cccc2c(C(=O)COC(=O)c3ccc([N+](=O)[O-])s3)c[nH]c12`, the EC50 is 0.735 µM.

`CCOc1ccc(-c2nnc(NC(=O)c3ccc(OCC(C)C)c(OC)c3)o2)cc1`: the concentration for a half-maximal effect (EC50) is 0.347 µM. For `N#Cc1nc(-c2ccccc2Cl)oc1N1CCN(C(=O)c2ccco2)CC1` the value was > 15 µM (inactive); for `Cc1ccc(C(=O)NNC2=Nc3cccc4cccc2c34)cc1`, 3.14 µM.

Turning to `CCc1ccc(C2C(C#N)=C(N)C(C#N)(C#N)C3=CCC(C(C)(C)C)CC32)cc1` (configuration not stated), the EC50 was 5.18 µM.

Turning to `Cc1cc(Cl)c2oc(C(=O)N3CCC(O)(c4ccccc4)CC3)c(C)c2c1`, the EC50 is 7.31 µM.

With `COc1cc(C(=O)NC(=S)Nc2ccc(Cc3ccncc3)cc2)cc(OC)c1OC`, the 50% effective concentration (EC50) was 2.45 µM. On to `CCc1ccc(N=C2NC(=O)/C(=C/c3cc(OC)c(O)c(OC)c3)S2)cc1`, for which the EC50 was 4.44 µM.

On to `O=C(N/N=C/c1cc(Br)cc(Br)c1O)c1cccc(S(=O)(=O)N2CCOCC2)c1`, for which the EC50 was 1.17 µM. For `O=C(NNc1ccccc1Br)C(O)(c1cccc(C(F)(F)F)c1)c1cccc(C(F)(F)F)c1` the value was 2.59 µM; for `COc1cccc(NC(=O)NCCCCc2ccccc2)c1`, > 15 µM (inactive); for `Cc1cc(NC(=O)c2sccc2C)n(-c2nc3ccccc3[nH]2)n1`, 2.81 µM. For `NC(=O)c1ccc(NC(=O)COC(=O)c2c3c(nc4ccccc24)/C(=C\c2ccc4c(c2)OCO4)CCC3)cc1` the value was 5.31 µM; for `O=C(Nc1nnc(-c2ccncc2)o1)c1ccc(Br)s1`, 3.27 µM; for `CCN(c1ccc(C)cc1C)S(=O)(=O)c1nnc(NC(=O)c2ccco2)s1`, 4.2 µM. The figure for `Cc1ccc(Cn2c(C(CO)Nc3nc(-c4ccc(F)cc4)cs3)nc3ccccc32)cc1` (configuration not stated) is 3.35 µM; for `N#CC(C(=O)C12CC3CC(CC(C3)C1)C2)c1nc2ccccc2[nH]1` (configuration not stated) it is 3.23 µM; for `O=C1C(Nc2ccccc2)=C/C(=N/S(=O)(=O)c2cccs2)c2ccccc21` it is 1.33 µM. Regarding `Cc1cc2oc(=O)cc(CNc3ccccc3F)c2cc1O`, the EC50 is 10.2 µM. The figure for `Cc1ccc(N/N=C2\CS(=O)(=O)N(C)c3ccsc32)cc1` is 1.49 µM. For `O=C(/C=C/c1ccco1)Oc1cc(Br)cc(/C=N/NC(=O)c2ccccc2O)c1` the value was 1.11 µM; for `Cc1ccc(NC(=O)NCc2ccccn2)cc1Cl`, > 15 µM (inactive); for `Cc1cc2occ(CC(=O)NC3=NCCS3)c2cc1C(C)C`, 4.35 µM. For `CCN1/C(=C/c2ccc3ccccc3[n+]2CC)C=Cc2ccccc21` the value was 6.08 µM; for `O=C(Nc1ccc(OCC(F)(F)C(F)F)c(C(F)(F)F)c1)c1ccc(Cl)cc1`, 3.62 µM; for `CCOC(=O)c1c(NC(=S)N2CCN(C)CC2)sc(C)c1-c1ccccc1`, 6.51 µM. Turning to `Nc1nc(NC(=O)/C=C/c2ccc(F)cc2)nn1-c1ccccc1`, the EC50 is 2.62 µM.

For the molecule `C=C[C@]1(C)C[C@@H](OC(=O)CSCCN(CC)CC)[C@]2(C)C(C)CC[C@]3(CCC(=O)[C@H]32)[C@@H](C)[C@@H]1O` (some centres not stated), the EC50 was < 0.06 µM. The figure for `CCN(CC(=O)NC(C)(C)C)C(=O)COc1c(Cl)cc(Cl)c2ccc(C)nc12` is 0.499 µM.

As to `O=C1C=C(Nc2ccccc2O)c2ccccc2C1=O`, the concentration giving a half-maximal response (EC50) was 3.08 µM. The figure for `CCC1=NN(C(=O)c2ccccc2O)C(O)(c2ccccc2)C1` (configuration not stated) is 1.94 µM; for `CSc1cccc(NC(=O)OC2CCCCCCCCCCC2)c1` it is 4.1 µM. The figure for `O=c1[nH]c(CN2CC=C(c3ccccc3)CC2)nc2scc(-c3cccs3)c12` is 3.87 µM; for `COc1ccc(NC(=O)c2cccc(-c3ccc(O)cc3)c2)cn1` it is 13 µM. On to `CC(C)(C)CC(=O)N1CCC(c2nc3c(nnn3Cc3c(F)cccc3Cl)c(=O)[nH]2)CC1`, for which the 50% effective concentration (EC50) is 2.8 µM.

Turning to `O=c1[nH]c(NNC(=S)NCc2ccccc2)nc2c1C1(CCCCC1)Cc1ccccc1-2`, the EC50 was 1.33 µM.

With `COc1ccc(-c2nc(/C=C3\C(C)=Nc4ccccc43)c(O)o2)cc1`, the concentration for a half-maximal effect (EC50) is 3.5 µM.

Turning to `CCOc1cc(CNc2ccc3c(c2)CCC3)ccc1OC`, the EC50 is > 15 µM (inactive). For `CCOc1cccc2sc(Nc3nc4ccc(NC(C)=O)cc4s3)nc12` the value was 4.69 µM; for `CC1(C)S[C@@H]2[C@H](NC(=O)COc3ccccc3)C(=O)N2C1C(=O)OCC1CCCCC1` (some centres not stated), 8 µM. The figure for `C/C(=N\Nc1cc(N2CCCCC2)nc(C)n1)c1ccc(Br)cc1` is 4.46 µM; for `C/C(N)=C(/C#N)C(=O)COC(=O)c1cc(-c2ccc(Br)cc2)nc2ccccc12` it is 9.97 µM; for `Clc1cccc(Nc2ncnc3c2cnn3-c2ccccc2)c1` it is 4.98 µM. For `c1ccc(OCc2nc3c4c(ncn3n2)-c2ccccc2CC42CCCC2)cc1` the value was 11.7 µM.

For `O=C(N/N=C/c1cc(Cl)ccc1O)c1cccnc1`, the concentration for a half-maximal effect (EC50) was 1.55 µM. The figure for `COc1ccc(O)c(CN2CCC(n3nccc3NC(=O)CCOc3ccccc3)CC2)c1` is > 15 µM (inactive); for `COc1cc2nc(CSc3nc(-c4ccc(F)cc4)cs3)[nH]c(=O)c2cc1OC` it is > 15 µM (inactive). For `FC(F)(F)c1cccc(NC(=S)NNC(=S)Nc2cccc(C(F)(F)F)c2)c1` the value was 0.804 µM; for `Cc1ccc(/C=C/C2=NN(Cc3ccc(Cl)c(Cl)c3)C(=O)CC2)cc1`, 7.83 µM. On to `Cc1ccc(Cn2c(Cc3ccccc3)nc3ccccc32)cc1`, for which the EC50 is 14.2 µM.

`CC(C)Sc1cc(N2CCCC2)nc(-c2ccccc2)n1`: the concentration for a half-maximal effect (EC50) is 11.2 µM. The figure for `CC(=O)N1CCN(c2ccccc2NC(=O)c2cccs2)CC1` is > 15 µM (inactive); for `CCOC(=O)C1=C(c2ccc(OC)cc2)C(=O)c2ccccc2C1=O` it is 1.78 µM.

On to `COc1ccc(Cl)cc1C(=O)NNC(=S)NC(=O)c1cc(-c2ccccc2)nc2ccccc12`, for which the EC50 was 0.081 µM. Regarding `COc1ccc(C2CC(O)(c3ccccc3)Oc3c(C)ccc(C)c32)cc1` (configuration not stated), the EC50 is > 15 µM (inactive).

As for `CCCn1c(NC(=O)c2cccc(C)c2C)nc2ccccc21`, the EC50 was 7.37 µM. In the case of `COc1cc(OC)cc(-c2cc3nc4c(c(N5CCN(c6ncccn6)CC5)n3n2)CCCC4)c1`, the EC50 was 6.28 µM. The figure for `CCOC(=O)c1cnn(-c2nc(-c3ccccc3)cs2)c1C(F)(F)F` is 5.29 µM; for `CCN(CC)c1ccc(C(=O)OCc2cc(=O)oc3cc(O)ccc23)cc1` it is 15.3 µM; for `O=C(Nc1ccccc1Sc1ccccc1)c1ccccc1F` it is 4.53 µM. The figure for `S=C(NCCSCc1ccc(Cl)cc1Cl)Nc1ccccc1` is 7.32 µM; for `CC1=NN(c2nc3ccccc3[nH]2)C(=O)C1Cc1ccccc1` (configuration not stated) it is 0.507 µM; for `Cc1nnc(-c2ccccc2)c(=O)n1/N=C/c1c(O)ccc2ccccc12` it is 4.37 µM.
